Assay results reported in ChEMBL document CHEMBL1131721, “Adenosine-5'-carboxylic acid peptidyl derivatives as inhibitors of protein kinases” (Bioorg Med Chem Lett, 1999).
Residues, ends and D or L forms follow the SMILES beside them. *: point of attachment. X1 = Nc1ncnc2c1ncn2C1O[C@H](C(=O)*)[C@@H](O)[C@H]1O; Ahx = NCCCCCC(=O)O

How the values were obtained:
[1] = Inhibition of murine Protein kinase A; design: species or system Mus musculus
[2] = Inhibition of Casein kinase 1 from rat liver
CaM kinase I alpha = biological target: T1, CaM kinase I alpha (Zea mays, UniProt O04417); assay: Inhibition of Calcium-dependent protein kinase 1 (CDPK-1) from maize seedlings
T1 sequence (O04417 whole entry): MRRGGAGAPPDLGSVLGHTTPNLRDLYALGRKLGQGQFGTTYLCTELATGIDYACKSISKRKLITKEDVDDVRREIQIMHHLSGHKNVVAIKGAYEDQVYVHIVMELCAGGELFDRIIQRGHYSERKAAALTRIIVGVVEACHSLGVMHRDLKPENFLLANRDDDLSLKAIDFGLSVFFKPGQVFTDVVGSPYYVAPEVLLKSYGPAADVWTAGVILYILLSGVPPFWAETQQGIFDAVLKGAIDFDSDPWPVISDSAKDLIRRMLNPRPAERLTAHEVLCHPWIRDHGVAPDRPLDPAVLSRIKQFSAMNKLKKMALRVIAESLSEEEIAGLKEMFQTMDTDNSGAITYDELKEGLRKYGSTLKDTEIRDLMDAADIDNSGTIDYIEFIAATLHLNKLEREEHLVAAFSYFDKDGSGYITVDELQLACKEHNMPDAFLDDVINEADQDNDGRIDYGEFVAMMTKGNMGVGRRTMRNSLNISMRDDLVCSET

[3] = Inhibition of Casein kinase 2 from rat liver
[4] = Inhibition of Casein kinase 2 from rat liver at 100 uM (No inhibition)
[5] = Inhibition of murine Protein kinase A at 100 uM (No inhibition); design: species or system Mus musculus

Compound	IC50 [1] [µM]	IC50 [2] [µM]	IC50 (CaM kinase I alpha) [µM]	IC50 ([3]; read-out: IC50) [µM]	IC50 [4]	IC50 [5]	IC50 [3]
N=C(N)NCCC[C@H](NC(=O)[C@H](CCCNC(=N)N)NC(=O)[C@H](CCCNC(=N)N)NC(=O)[C@H](CCCNC(=N)N)NC(=O)[C@H](CCCNC(=N)N)NC(=O)[C@H](CCCNC(=N)N)NC(=O)CCCCCCCNC(=O)[C@H]1OC(n2cnc3c(N)ncnc32)[C@H](O)[C@@H]1O)C(=O)O (stereo partly specified)	0.24	> 30	3.2	> 30			
Nc1ncnc2c1ncn2[C@@H]1O[C@H](CO)[C@@H](O)[C@H]1O [ADENOSINE]	141	126	116	> 300			
C[C@H](NC(=O)C[C@H](NC(=O)C[C@H](NC(=O)[C@H]1O[C@@H](n2cnc3c(N)ncnc32)[C@H](O)[C@@H]1O)C(=O)O)C(=O)O)C(=O)N[C@@H](CCCNC(=N)N)C(=O)N[C@@H](CCCNC(=N)N)C(=O)N[C@@H](CCCNC(=N)N)C(=O)N[C@@H](CCCNC(=N)N)C(=O)N[C@@H](CCCNC(=N)N)C(=O)N[C@@H](CCCNC(=N)N)C(=O)O	11.1	> 30	> 50	> 30			
N=C(N)NCCC[C@@H](NC(=O)[C@@H](CCCNC(=N)N)NC(=O)CCCCCNC(=O)[C@H]1OC(n2cnc3c(N)ncnc32)[C@H](O)[C@@H]1O)C(=O)O (stereo partly specified)			35				
N=C(N)NCCC[C@H](NC(=O)[C@H](CCCNC(=N)N)NC(=O)[C@H](CCCNC(=N)N)NC(=O)[C@H](CCCNC(=N)N)NC(=O)[C@H](CCCNC(=N)N)NC(=O)[C@H](CCCNC(=N)N)NC(=O)CCCCCCCCCCNC(=O)[C@H]1OC(n2cnc3c(N)ncnc32)[C@H](O)[C@@H]1O)C(=O)O (stereo partly specified)	0.33	> 30	4.9		Not Active		
N=C(N)NCCC[C@H](NC(=O)[C@H](CCCNC(=N)N)NC(=O)[C@H](CCCNC(=N)N)NC(=O)[C@H](CCCNC(=N)N)NC(=O)[C@H](CCCNC(=N)N)NC(=O)[C@H](CCCNC(=N)N)NC(=O)CNC(=O)[C@H]1OC(n2cnc3c(N)ncnc32)[C@H](O)[C@@H]1O)C(=O)O (stereo partly specified)	4	> 30	67	> 30			
NC(N)=NCCC[C@@H](N)C(=O)N[C@H](CCCN=C(N)N)C(=O)N[C@H](CCCN=C(N)N)C(=O)N[C@H](CCCN=C(N)N)C(=O)N[C@H](CCCN=C(N)N)C(=O)N[C@H](CCCN=C(N)N)C(=O)O		> 100	> 50		Not Active	Not Active	
CC(=O)NCCCCCC(=O)N[C@@H](CCCN=C(N)N)C(=O)N[C@@H](CCCNC(=N)N)C(=O)N[C@@H](CCCNC(=N)N)C(=O)N[C@@H](CCCNC(=N)N)C(=O)N[C@@H](CCCNC(=N)N)C(=O)N[C@@H](CCCN=C(N)N)C(=O)O (stereo in doubt)	> 100	> 100	> 50		Not Active		
C[C@H](NC(=O)CCNC(=O)CCNC(=O)[C@H]1OC(n2cnc3c(N)ncnc32)[C@H](O)[C@@H]1O)C(=O)N[C@@H](CCCNC(=N)N)C(=O)N[C@@H](CCCNC(=N)N)C(=O)N[C@@H](CCCNC(=N)N)C(=O)N[C@@H](CCCNC(=N)N)C(=O)N[C@@H](CCCNC(=N)N)C(=O)N[C@@H](CCCNC(=N)N)C(=O)O (stereo partly specified)	4.3	> 100	16				≥ 30 µM
N=C(N)NCCC[C@H](NC(=O)[C@H](CCCNC(=N)N)NC(=O)[C@H](CCCNC(=N)N)NC(=O)[C@H](CCCNC(=N)N)NC(=O)[C@H](CCCNC(=N)N)NC(=O)[C@H](CCCNC(=N)N)NC(=O)CCNC(=O)[C@H]1OC(n2cnc3c(N)ncnc32)[C@H](O)[C@@H]1O)C(=O)O (stereo partly specified)	1.8	> 30	38				Not Active
N=C(N)NCCC[C@H](NC(=O)[C@H](CCCNC(=N)N)NC(=O)[C@H](CCCNC(=N)N)NC(=O)[C@H](CCCNC(=N)N)NC(=O)CCCCCNC(=O)[C@H]1OC(n2cnc3c(N)ncnc32)[C@H](O)[C@@H]1O)C(=O)O (stereo partly specified) ({X1-Ahx}-RRRR-OH)			52				
N=C(N)NCCC[C@H](NC(=O)[C@H](CCCNC(=N)N)NC(=O)[C@H](CCCNC(=N)N)NC(=O)[C@H](CCCNC(=N)N)NC(=O)[C@H](CCCNC(=N)N)NC(=O)[C@H](CCCNC(=N)N)NC(=O)CCCCCNC(=O)[C@H]1OC(n2cnc3c(N)ncnc32)[C@H](O)[C@@H]1O)C(=O)O (stereo partly specified)	0.12	> 30	1.2	> 30			
N=C(N)NCCC[C@H](NC(=O)[C@H](CCCNC(=N)N)NC(=O)[C@H](CCCNC(=N)N)NC(=O)[C@H](CCCNC(=N)N)NC(=O)[C@H](CCCNC(=N)N)NC(=O)[C@H](CCCNC(=N)N)NC(=O)CCCNC(=O)[C@H]1OC(n2cnc3c(N)ncnc32)[C@H](O)[C@@H]1O)C(=O)O (stereo partly specified)	1.3	> 30	19	> 30			
